Source: publication PMC9734138, “Structure of the AlgKX modification and secretion complex required for alginate production and biofilm attachment in Pseudomonas aeruginosa” (Nature Communications, 2022)
Values joined by “and” are separate entries in the source; they are usually repeats but may differ in a detail not shown here. Identical values can stand only once.

How the values were obtained:
[1] = target: T1, AlgKXPp complex (Pseudomonas putida, UniProt Q88NC7+Q88ND0); experiment: ESI-MS alginate binding assay, AlgKXPp complex (binding model fit); settings: for Ka (M^−1) (AlgKXPp), apparent association constant: ESI-MS, 200 mM aqueous ammonium acetate, pH 7, 25 °C, errors one standard deviation; for fraction of AlgKXPp bound to ligand: ammonium acetate (200 mM, pH 7.0), mean, n = 3
T1 construct: Induced cells containing either pET26b P. putida AlgK^33–484 or pET24b P. putida AlgX^∆Nterm; His6 (C); made in house; host or cells: E. coli BL21 (DE3) CodonPlus (AlgK) and E. coli Lemo21 (DE3) (AlgX)
Method: (§1) AlgXPp and AlgKPp stock solutions were buffer exchanged into 200 mM aqueous ammonium acetate (pH 7) using a 10 kDa cut-off Amicon 0.5 mL microconcentrators (EMD, Millipore, Billerica, MA). Stock solutions of oligosaccharides were prepared by dissolving a known amount of solid compound in Milli-Q water and stored at −20 °C until used. Nanoelectrospray (nanoESI) mass spectrometry measurements were performed on a Q Exactive Orbitrap (Orbitrap) mass spectrometer (Thermo Fisher Scientific, Bremen, Germany) and on a Q Exactive Ultra-High Mass Range Orbitrap mass spectrometer (Thermo Fisher Scientific, Bremen, Germany), both equipped with a nanoflow ESI source. NanoESI was performed by applying a voltage of ~0.8 kV to a platinum wire inserted into the nanoESI tip, which was produced from a borosilicate glass capillary (1.0 mm o.d., 0.78 mm i.d.) pulled to ~2 μm o.d. using a P − 1000 micropipette puller (Sutter Instruments, Novato, CA). The inlet capillary of the MS was heated to 120 °C, the S-lens RF level was set at 100, automatic gain control target was set at 1 × 10^6 with a maximum injection time of 200 ms. All MS data were acquired and processed using Thermo Xcalibur 4.1 software.
(§2) 3b AlgXPpL⇌AlgXPp+L,Ka,xL=[AlgXPpL]/AlgXPp[L] 3c AlgKXPp⇌AlgKPp+AlgXPp,Ka,kx=[AlgKXPpL]/AlgKPp[AlgXPp] 3d AlgKXPpL⇌AlgKXPp+L,Ka,kxL=[AlgKXPL]/AlgKXPpLL
(§3) The corresponding mass balance equations are shown below:4a [L]0=[L]+[AlgKPpL]+[AlgXPpL]+[AlgKXPpL] 4b [AlgKPp]0=[AlgKPp]+[AlgKPpL]+[AlgKXPp]+[AlgKXPpL] 4c [AlgXPp]0=[AlgXPp]+[AlgXPpL]+[AlgKXPp]+[AlgKXPpL] where […], […], and [L]0 are initial concentrations of AlgKPp, AlgXPp, and oligosaccharide ligand L; Ka,kL, Ka,xL, and Ka,kx are association constant values determined as described above, and Ka,kxL is unknown parameter found by the fitting of the model to experimental data.

[2] = target: AlgKXPp (Pseudomonas putida, UniProt Q88NC7+Q88ND0); experiment: NanoESI-MS ligand titration of the AlgK-AlgX mixture, Ka,kxL fitted from the ligand-bound fraction of the complex with a coupled-equilibria model, 200 mM aqueous ammonium acetate pH 7, 25 °C by the table title (21 °C in the methods).; assay type: binding; settings: n = 3; read-out: Ka (M^-1) (AlgKXPp)
Method: as §1
The Ka,kx for the interaction of AlgKPp and AlgXPp with the formation of AlgKXPp complex was obtained using the Slow Mixing Mode (SLOMO) ESI-MS assay. Briefly, ~2 µL of a solution of AlgXPp (5 µM) and AlgKPp (3–10 µM) was introduced into the nanoESI tip, followed by injection of 10 µL of solution of AlgXPp (5 µM) and AlgKPp (45 µM). The binding measurements were carried out at 21 °C; time-resolved mass spectra were averaged over 1 min intervals and the sum of the charge state-normalized abundances of the […] and AlgKXPp complex ions were calculated automatically using the SWARM software (https://github.com/pkitov/CUPRA-SWARM)[72]. The corrected (for response factors) abundances of AlgXPp and AlgKXPp species were used to calculate R/(R+1) values for AlgKPp (designated as L) and AlgXPp (designated as P) interaction and association constant Ka,kx was found using Eq. (1) (Ka,kx in this case designated as Ka in Eq. (1)).
as §2, §3

[3] = target: T2, AlgKPp (Pseudomonas putida, UniProt Q88NC7); experiment: Direct nanoESI-MS binding assay of the single proteins with reference protein correction for nonspecific binding, 200 mM aqueous ammonium acetate pH 7, 25 °C by the table title (21 °C in the methods).; design: gene algK; settings: read-out: Ka (M^-1) (AlgKPp); Ka (M^-1) (AlgXPp)
Method: as §1
(§4) Association constants (Ka,kL and Ka,xL) for interactions of AlgKPp and AlgXPp with oligosaccharide ligands were obtained using the direct ESI-MS assay[68],[69]. The binding measurements were carried out at 21 °C, and the equilibrium mixtures were prepared by mixing aliquots of the stock solutions of proteins and ligands in aqueous ammonium acetate (200 mM). ESI-MS measurements were performed after a 1 h incubation time period. All mass spectra were corrected, when needed, for the occurrence of nonspecific carbohydrate-protein binding during the ESI process using the reference protein method. Ka,kL and Ka,xL values were determined from the abundance ratio (R) of the ligand-bound (PL) to free protein (P) ions (P can be AlgKPp or AlgXPp), after correction for nonspecific ligand binding, and the initial concentrations of protein ([P]0) and ligand ([L]0), Eq. (1):1 R/R+1=KaP0+KaL0+1−(1−KaL0+KaP0)^2+4KaL0/2KaP0 where R is taken to be equal to the corresponding equilibrium concentration ratio ([PL]/[P]) in solution, Eq. (2):2 R=∑Ab(PL)/∑Ab(P)=[PL]/[P] and Ka is Ka,kL or Ka,xL.

[4] = target: T3, AlgXPp (Pseudomonas putida, UniProt Q88ND0); experiment: as above; design: gene algX; settings: read-out: Ka (M^-1) (AlgKPp); Ka (M^-1) (AlgXPp)
Method: as §1, §4
Target sequence in this assay (Q88ND0 whole entry): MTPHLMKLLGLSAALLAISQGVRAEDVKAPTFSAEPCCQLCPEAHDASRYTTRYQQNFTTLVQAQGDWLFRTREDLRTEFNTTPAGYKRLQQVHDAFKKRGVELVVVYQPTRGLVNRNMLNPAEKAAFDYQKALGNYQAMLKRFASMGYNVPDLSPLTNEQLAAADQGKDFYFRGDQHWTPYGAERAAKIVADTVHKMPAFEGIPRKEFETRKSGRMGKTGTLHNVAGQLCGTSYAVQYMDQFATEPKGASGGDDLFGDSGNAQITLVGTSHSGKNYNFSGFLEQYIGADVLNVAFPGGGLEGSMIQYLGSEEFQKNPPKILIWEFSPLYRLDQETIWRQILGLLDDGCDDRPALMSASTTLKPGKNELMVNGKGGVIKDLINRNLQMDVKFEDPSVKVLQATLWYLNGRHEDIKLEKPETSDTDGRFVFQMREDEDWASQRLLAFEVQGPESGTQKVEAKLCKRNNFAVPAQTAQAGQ

[5] = target: T3, AlgXPp; experiment: Direct ESI-MS alginate binding assay, AlgXPp; design: His6 (C); made in house; host or cells: E. coli Lemo21 (DE3); settings: 200 mM aqueous ammonium acetate, pH 7, 25 °C, errors one standard deviation
Method: (§5) AlgXPp and AlgKPp stock solutions were buffer exchanged into 200 mM aqueous ammonium acetate (pH 7) using a 10 kDa cut-off Amicon 0.5 mL microconcentrators (EMD, Millipore, Billerica, MA). Stock solutions of oligosaccharides were prepared by dissolving a known amount of solid compound in Milli-Q water and stored at −20 °C until used. Nanoelectrospray (nanoESI) mass spectrometry measurements were performed on a Q Exactive Orbitrap (Orbitrap) mass spectrometer (Thermo Fisher Scientific, Bremen, Germany) and on a Q Exactive Ultra-High Mass Range Orbitrap mass spectrometer (Thermo Fisher Scientific, Bremen, Germany), both equipped with a nanoflow ESI source. […]
(§6) Association constants (Ka,kL and Ka,xL) for interactions of AlgKPp and AlgXPp with oligosaccharide ligands were obtained using the direct ESI-MS assay[68],[69]. […] Ka,kL and Ka,xL values were determined from the abundance ratio (R) of the ligand-bound (PL) to free protein (P) ions (P can be AlgKPp or AlgXPp), after correction for nonspecific ligand binding, and the initial concentrations of protein ([P]0) and ligand ([L]0), Eq. (1):1 R/R+1=KaP0+KaL0+1−(1−KaL0+KaP0)^2+4KaL0/2KaP0 where R is taken to be equal to the corresponding equilibrium concentration ratio ([PL]/[P]) in solution, Eq. (2):2 R=∑Ab(PL)/∑Ab(P)=[PL]/[P] and Ka is Ka,kL or Ka,xL.
Target sequence in this assay (Q88ND0 25-479): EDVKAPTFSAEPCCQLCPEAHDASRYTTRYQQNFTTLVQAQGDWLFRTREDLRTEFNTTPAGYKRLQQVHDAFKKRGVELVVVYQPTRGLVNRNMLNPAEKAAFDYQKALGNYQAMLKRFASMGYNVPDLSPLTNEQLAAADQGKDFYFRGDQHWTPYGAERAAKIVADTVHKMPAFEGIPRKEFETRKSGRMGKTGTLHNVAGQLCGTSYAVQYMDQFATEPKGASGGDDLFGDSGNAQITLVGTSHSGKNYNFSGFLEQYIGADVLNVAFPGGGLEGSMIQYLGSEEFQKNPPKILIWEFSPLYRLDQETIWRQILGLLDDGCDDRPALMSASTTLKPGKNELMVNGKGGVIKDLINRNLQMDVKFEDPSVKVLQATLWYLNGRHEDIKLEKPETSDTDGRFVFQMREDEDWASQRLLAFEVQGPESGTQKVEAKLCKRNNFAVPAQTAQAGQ

[6] = target: T2, AlgKPp; experiment: Direct ESI-MS alginate binding assay, AlgKPp; design: Induced cells containing either pET26b P. putida AlgK^33–484 or pET24b P. putida AlgX^∆Nterm; His6 (C); made in house; host or cells: E. coli BL21 (DE3) CodonPlus; settings: 200 mM aqueous ammonium acetate, pH 7, 25 °C, errors one standard deviation, nb = no binding detected
Method: as §5, §6

[7] = target: T3, AlgXPp; experiment: Acetylesterase activity assay, pNP-acetate, AlgXPp; assay type: biochemical; design: His6 (C); made in house; host or cells: E. coli Lemo21 (DE3); settings: pNP-acetate pseudosubstrate; sample as labelled (AlgX alone, Man10 alone, AlgX+Man10); single technical replicates
Method: (§7) The assay was performed as previously described in refs. [19], [29] with minor modifications. Briefly, standard reactions contained 5 μM protein (AlgKPp, AlgXPp, or AlgKPp-AlgXPp complex) in 50 mM sodium HEPES pH 7.0 and 75 mM NaCl. Reactions were initiated with the addition of pNP-acetate dissolved in ethanol to 2.5 mM. Alginate substrates were added at a final concentration of 0.5 mg/mL. Alginate substrates were purified as previously described[62] from FRD1[66] and FRD462[67]. The hydrolysis and removal of an acetate group from pNP-acetate was monitored in real-time for 10 min at 405 nm for the appearance of p-nitrophenyl. The background hydrolysis rate of pNP-acetate in the absence of enzymes was measured and subtracted from reaction rates. For Supplementary Fig. 11b, a similar assay was performed as previously described in ref. [19], with minor modifications. Briefly, Briefly, standard reactions contained 5 μM protein (AlgKPp, AlgXPp, or AlgKPp-AlgXPp complex) in 50 mM sodium HEPES pH 7.0 and 75 mM NaCl. […] The hydrolysis and removal of an acetate group from 3-carboxyumbelliferyl acetate was monitored in real-time for 10 min using an excitation of 386 nm and an emission of 447 nm. The background hydrolysis rate of 3-carboxyumbelliferyl acetate in the absence of enzymes was measured and subtracted from reaction rates. Data were analysed using GraphPad Prism 9 (Dotmatics).
Target sequence in this assay (Q88ND0 25-479): as above

[8] = target: T3, AlgXPp; experiment: Acetylesterase activity assay, 3-carboxyumbelliferyl acetate, AlgX; assay type: biochemical; design: His6 (C); made in house; host or cells: E. coli Lemo21 (DE3); settings: AlgX alone; linear regression of raw values minus buffer blank vs time (s); exp1 and exp2, triplicates; Supp. Fig. 14b
Method: as §7
Target sequence in this assay (Q88ND0 25-479): as above

[9] = initial ligand concentration 50 µM
[10] = initial ligand concentration 100 µM
[11] = initial ligand concentration 155 µM
[12] = initial ligand concentration 211 µM
[13] = initial ligand concentration 265 µM
[14] = initial ligand concentration 322 µM

T2 sequence (Q88NC7 33-484): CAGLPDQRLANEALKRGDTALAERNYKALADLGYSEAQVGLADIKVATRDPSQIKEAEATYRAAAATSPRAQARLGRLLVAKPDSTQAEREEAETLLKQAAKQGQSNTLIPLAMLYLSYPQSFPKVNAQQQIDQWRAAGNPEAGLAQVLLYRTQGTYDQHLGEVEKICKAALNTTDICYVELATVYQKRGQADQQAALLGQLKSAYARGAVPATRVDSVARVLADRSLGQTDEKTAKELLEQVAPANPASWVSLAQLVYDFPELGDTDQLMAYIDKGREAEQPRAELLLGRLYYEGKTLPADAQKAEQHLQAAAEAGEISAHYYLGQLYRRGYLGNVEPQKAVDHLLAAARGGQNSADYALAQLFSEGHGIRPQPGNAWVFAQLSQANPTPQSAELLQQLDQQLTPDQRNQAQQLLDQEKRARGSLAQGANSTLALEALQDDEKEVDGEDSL
T1 sequence (Q88ND0 25-479): as the sequence (Q88ND0 25-479) above
T1 sequence (Q88NC7 33-484): as the sequence (Q88NC7 33-484) above
Sequence of AlgKXPp (Q88ND0 whole entry): as the sequence (Q88ND0 whole entry) above
Sequence of AlgKXPp (Q88NC7 33-484): as the sequence (Q88NC7 33-484) above

Compound | Ka (M^−1) (AlgKXPp), apparent association constant [1] | fraction of AlgKXPp bound to ligand [1, 9] | fraction of AlgKXPp bound to ligand [1, 10] | fraction of AlgKXPp bound to ligand [1, 11] | fraction of AlgKXPp bound to ligand [1, 12] | fraction of AlgKXPp bound to ligand [1, 13] | fraction of AlgKXPp bound to ligand [1, 14] | Kd [2] | Kd [3] | Kd [4] | Ka (M^−1) (AlgXPp), apparent association constant [5] | Ka (M^−1) (AlgKPp), apparent association constant [6] | slope values: rate of acetylesterase activity, absorbance value at 405 nm per second [7] | slope values used in graph [8]
CCCO[C@@H]1O[C@H](C(=O)O)[C@@H](O[C@@H]2O[C@H](C(=O)O)[C@@H](O[C@@H]3O[C@H](C(=O)O)[C@@H](O[C@@H]4O[C@H](C(=O)O)[C@@H](O[C@@H]5O[C@H](C(=O)O)[C@@H](O[C@@H]6O[C@H](C(=O)O)[C@@H](O)[C@H](O)[C@@H]6O)[C@H](O)[C@@H]5O)[C@H](O)[C@@H]4O)[C@H](O)[C@@H]3O)[C@H](O)[C@@H]2O)[C@H](O)[C@@H]1O [ManA6] | (7.8 ± 0.8) × 10^2 M^−1 | 0.04 | 0.08 | 0.11 | 0.11 | 0.16 | 0.22 | 1.28 mM | 3.23 mM | 5.26 mM | (1.9 ± 0.7) × 10^2 M^−1 | (3.1 ± 0.5) × 10^2 M^−1 | – | –
CCCO[C@@H]1O[C@H](C(=O)O)[C@@H](O[C@@H]2O[C@H](C(=O)O)[C@@H](O[C@@H]3O[C@H](C(=O)O)[C@@H](O[C@@H]4O[C@H](C(=O)O)[C@@H](O[C@@H]5O[C@H](C(=O)O)[C@@H](O[C@@H]6O[C@H](C(=O)O)[C@@H](O[C@@H]7O[C@H](C(=O)O)[C@@H](O)[C@H](O)[C@@H]7O)[C@H](O)[C@@H]6O)[C@H](O)[C@@H]5O)[C@H](O)[C@@H]4O)[C@H](O)[C@@H]3O)[C@H](O)[C@@H]2O)[C@H](O)[C@@H]1O [ManA7] | (10 ± 1.0) × 10^2 M^−1 | 0.028 | 0.08 | 0.15 | 0.20 | 0.21 | 0.24 | – | – | – | (2.6 ± 0.3) × 10^2 M^−1 | (4.2 ± 0.4) × 10^2 M^−1 | – | –
AlgX: P. putida KT2440 AlgX 1–479, His-tagged terminal alginate acetyltransferase | – | – | – | – | – | – | – | – | – | – | – | – | 5.128e-5 and 6.734e-5 and 4.103e-5 | 20818 and 20884 and 19338 and 14321 and 14083 and 15487
